Measured values: paper PMC4521012, “Distortion of the Major Histocompatibility Complex Class I Binding Groove to Accommodate an Insulin-derived 10-Mer Peptide” (The Journal of Biological Chemistry, 2015)

How the values were obtained:
[1] = test system: G9C8 T-cell clone (insulin-reactive CD8+ T-cells); assay: Staining of insulin-specific CD8 T-cells with H-2K^d·peptide tetramers; format: cell-based, NOD mouse; conditions: flow cytometry; for Tetramer+ (% of G9C8 clone stained by H-2K^d·peptide tetramer): splenocytes of G9Cα−/− NOD mice, 50 nM dasatinib preincubation, 0.5 μg tetramer, 15 min at 37 °C, gated on live CD8+ cells
[2] = test system: G9C8 T-cell clone (insulin-reactive CD8+ T-cells); assay: T-cell functional assays (proliferation, MIP1β and IFNγ production); format: cell-based, NOD mouse; conditions: in all assays: [3H]thymidine proliferation, MIP1β and IFNγ ELISA; CD8+ T-cells with bone marrow-derived dendritic cells 10:1
Experimental: Splenic CD8^+ T-cells were purified using a Miltenyi MACS CD8^+ isolation kit (>90% purity) and cultured at 10:1 with bone marrow-derived dendritic cells with the LYLVCGERGF (G9GF), LYLVCGERG (G9G), or LYLVCGERV (G9V) peptide in RPMI medium supplemented with 5% FCS, 2 mM L-glutamine, 0.05 mM 2-mercaptoethanol, penicillin/streptomycin. Each sample was plated in duplicate. After 48 h of incubation, cells were pulsed with 0.5 μCi of [^3H]thymidine for 18 h, harvested, and counted to determine [^3H]thymidine incorporation.
Supernatants were removed from the proliferation assay cultures prior to the addition of [^3H]thymidine. MIP1β was measured by sandwich ELISA (R&D systems), whereas IFNγ was measured using a similar protocol (BD Biosciences) with the modification that the capture antibody was diluted in carbonate buffer and incubated at 4 °C overnight. Plates were blocked at 37 °C for 1 h, and the detection antibody was incubated for 1 h at room temperature.

[3] = test system: G9C8 TCR; assay: Surface plasmon resonance analysis of G9C8 TCR binding to peptide-H-2K^d; set-up: species or system NOD mouse; conditions: SPR, 25 °C
Experimental: Binding analysis was performed using a BIAcore 3000^TM equipped with a CM5 sensor chip as described previously ([41]). Binding analysis was performed four times in independent experiments using pMHC monomers generated in house and from the National Institutes of Health tetramer facility. Approximately 200–500 RU of peptide-H-2K^d (in complex with G9GF, G9G, or G9V) was attached to the CM5 sensor chip at a slow flow rate of 10 μl/min to ensure uniform distribution on the chip surface. Combined with the small amount of peptide-H-2K^d bound to the chip surface, this reduced the likelihood of off-rate-limiting mass transfer effects. The G9C8 TCR was purified and concentrated to ∼140 μM on the same day of surface plasmon resonance analysis to reduce the likelihood of TCR aggregation affecting the results. For equilibrium analysis, eight serial dilutions were prepared in triplicate for each sample and injected over the relevant sensor chips at 25 °C. TCR was injected over the chip surface using kinetic injections at a flow rate of 45 μl/min using H-2K^d·AYAAAAAAV or HLA-A*0201·ALWGPDPAAA in different experiments as negative controls.

[4] = target: H-2K^d (Mus musculus, UniProt P01902); assay: pMHC stability assay (thermal stability by CD spectroscopy); format: physicochemical, murine; conditions: CD spectroscopy at 218 nm, 2.5 μM protein in PBS, 4-90 °C in 0.5 °C intervals, two-state trimer-to-monomer fit
Experimental: Thermal stability of H-2K^d complexes was assessed by circular dichroism (CD) spectroscopy, monitoring the change in ellipticities at 218 nm. Data were collected on an Aviv Model 215 spectropolarimeter (Aviv Biomedical Inc., Lakewood, NJ) using a 0.1-cm quartz cell. Proteins were dissolved in PBS at concentrations of 2.5 μM. Melting curves were recorded in 0.5 °C intervals from 4 °C up to a maximum temperature of 90 °C when protein aggregation was observed. Melting curves were analyzed assuming a two-state trimer-to-monomer transition from the native (N) to unfolded (U) conformation N3 ↔ 3U with an equilibrium constant K = [U]^3/[N3] = F/(3c^2(1 − F)^3), where F and c are the degree of folding and protein concentration, respectively. Data were fitted as described ([38]). Fitted parameters were the melting temperature (Tm), van't Hoff's enthalpy (ΔHvH), and the slope and intercept of the native baseline. Because all protein complexes aggregated upon unfolding, the ellipticity of the unfolded state was set as a constant of −4,500 degrees cm^2 dmol^−1 ([39], [40]).

H-2K^d, sequence (P01902 whole entry, looked up): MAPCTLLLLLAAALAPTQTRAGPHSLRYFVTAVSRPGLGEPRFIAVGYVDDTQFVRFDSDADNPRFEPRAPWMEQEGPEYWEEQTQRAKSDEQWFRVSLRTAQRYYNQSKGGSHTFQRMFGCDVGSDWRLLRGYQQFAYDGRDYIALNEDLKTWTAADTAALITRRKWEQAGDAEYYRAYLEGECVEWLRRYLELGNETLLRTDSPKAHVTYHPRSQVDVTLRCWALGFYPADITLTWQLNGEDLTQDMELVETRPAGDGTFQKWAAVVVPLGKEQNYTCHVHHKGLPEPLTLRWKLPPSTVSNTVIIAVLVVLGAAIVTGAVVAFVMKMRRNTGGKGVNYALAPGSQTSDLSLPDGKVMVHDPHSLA

Sequence	Tetramer+ (% of G9C8 clone stained by H-2K^d·peptide tetramer) [1] [%]	Sensitivity of the G9C8 T-cell clone to G9G compared with G9GF [2]	G9C8 TCR affinity for the altered ligand compared with the native ligands (higher) [3] [times]	Mean fluorescence intensity of tetramer staining, compared with H-2K^d·G9G tetramer (in words) ([1]; different concentrations of each tetramer)	Melting temperature of the H-2K^d complex, difference to G9G and G9GF (higher) [4]	Sensitivity of the G9C8 T-cell clone to G9V compared with G9G [2]
LYLVCGERG [G9G, native insulin B chain 9-mer peptide, tested as complex or tetramer with H-2K^d]	85.7	about 5 times				
LYLVCGERV [G9V]	87.9		> 10	substantially higher	over 20 °C	at least 5 times
